What was measured:
[1] = target: T1, 5-hydroxytryptamine receptor 6 (Homo sapiens, UniProt P50406); assay: Binding affinity against cloned human 5-hydroxytryptamine 6 receptor expressed in HeLa cells using [3H]LSD; format: cell-based
[2] = target: T1, 5-hydroxytryptamine receptor 6; assay: Inhibitory concentration against 5-HT stimulated cAMP production in HeLa cells stably transfected with human 5-HT6 receptor; format: functional, cell-based
D(3) dopamine receptor [3] = target: T2, D(3) dopamine receptor (Homo sapiens, UniProt P35462); assay: Binding affinity against human cloned Dopamine receptor D3 stably expressed in CHO-K1 cells using [3H]spiperone; format: cell-based
T2 sequence (P35462 whole entry): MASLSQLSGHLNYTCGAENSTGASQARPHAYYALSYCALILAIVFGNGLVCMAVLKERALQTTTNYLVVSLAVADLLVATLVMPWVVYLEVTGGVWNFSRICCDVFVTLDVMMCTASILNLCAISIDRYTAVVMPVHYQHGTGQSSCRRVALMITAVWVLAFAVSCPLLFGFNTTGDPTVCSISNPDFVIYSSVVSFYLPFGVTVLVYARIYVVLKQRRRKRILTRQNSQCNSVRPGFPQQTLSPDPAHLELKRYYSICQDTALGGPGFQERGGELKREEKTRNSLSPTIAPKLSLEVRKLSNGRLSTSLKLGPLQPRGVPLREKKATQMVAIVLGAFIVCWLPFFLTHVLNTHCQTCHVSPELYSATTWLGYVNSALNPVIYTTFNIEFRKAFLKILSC

D(4) dopamine receptor = target: T3, D(4) dopamine receptor (Homo sapiens, UniProt P21917); assay: Binding affinity against human cloned Dopamine receptor D4 stably expressed in CHO-K1 cells using [3H]spiperone; format: cell-based
T3 sequence (P21917 whole entry): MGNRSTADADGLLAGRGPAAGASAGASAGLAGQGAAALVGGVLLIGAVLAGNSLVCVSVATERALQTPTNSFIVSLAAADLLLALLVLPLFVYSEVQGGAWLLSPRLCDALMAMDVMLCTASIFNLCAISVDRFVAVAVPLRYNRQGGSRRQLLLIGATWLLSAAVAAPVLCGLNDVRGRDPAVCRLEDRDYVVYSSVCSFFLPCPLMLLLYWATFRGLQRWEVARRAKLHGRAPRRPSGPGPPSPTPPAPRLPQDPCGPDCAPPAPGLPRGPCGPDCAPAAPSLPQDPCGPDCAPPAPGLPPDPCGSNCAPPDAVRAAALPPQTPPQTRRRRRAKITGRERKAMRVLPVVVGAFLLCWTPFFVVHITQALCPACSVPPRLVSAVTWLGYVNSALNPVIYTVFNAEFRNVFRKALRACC

[4] = target: T4, 5-hydroxytryptamine receptor 2A (Homo sapiens, UniProt P28223); assay: Inhibition of [125I]DOI binding to human cloned 5-hydroxytryptamine 2A receptor stably expressed in CHO cells at 1 uM; format: cell-based
T4 sequence (P28223 whole entry): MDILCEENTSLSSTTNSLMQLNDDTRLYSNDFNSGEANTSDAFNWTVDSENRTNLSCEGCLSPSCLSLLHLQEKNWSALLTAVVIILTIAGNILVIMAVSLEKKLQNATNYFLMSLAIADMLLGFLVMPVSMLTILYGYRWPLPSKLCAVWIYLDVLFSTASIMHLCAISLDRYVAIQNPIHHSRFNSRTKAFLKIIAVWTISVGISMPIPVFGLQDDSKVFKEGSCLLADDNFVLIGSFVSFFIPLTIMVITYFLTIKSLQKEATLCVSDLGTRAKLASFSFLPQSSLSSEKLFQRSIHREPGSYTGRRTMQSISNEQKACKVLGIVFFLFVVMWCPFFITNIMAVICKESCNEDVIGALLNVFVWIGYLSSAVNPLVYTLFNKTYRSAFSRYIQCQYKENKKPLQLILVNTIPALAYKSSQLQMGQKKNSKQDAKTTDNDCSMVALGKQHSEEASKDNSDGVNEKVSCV

[5] = target: 5-hydroxytryptamine receptor 1B (Homo sapiens) (UniProt P28222); assay: Inhibition of [3H]-5-HT binding to human cloned 5-hydroxytryptamine 1B receptor stably expressed in CHO cells at 1 uM; format: cell-based
Sequence of 5-hydroxytryptamine receptor 1B (Homo sapiens) (P28222 whole entry): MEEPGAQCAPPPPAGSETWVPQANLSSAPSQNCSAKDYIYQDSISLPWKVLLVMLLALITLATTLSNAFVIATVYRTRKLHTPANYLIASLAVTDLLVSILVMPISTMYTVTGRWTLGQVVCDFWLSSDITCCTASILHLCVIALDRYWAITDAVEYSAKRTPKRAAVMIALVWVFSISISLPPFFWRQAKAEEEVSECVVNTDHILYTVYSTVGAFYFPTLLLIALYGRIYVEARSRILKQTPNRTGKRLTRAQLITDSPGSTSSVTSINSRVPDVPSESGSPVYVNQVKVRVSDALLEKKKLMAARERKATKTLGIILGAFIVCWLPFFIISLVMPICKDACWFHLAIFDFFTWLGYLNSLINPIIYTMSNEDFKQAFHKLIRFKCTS

[6] = target: 5-hydroxytryptamine receptor 1D (Homo sapiens) (UniProt P28221); assay: Inhibition of [3H]5-HT binding to human cloned 5-hydroxytryptamine 1D receptor stably expressed in CHO cells at 1 uM; format: cell-based
Sequence of 5-hydroxytryptamine receptor 1D (Homo sapiens) (P28221 whole entry): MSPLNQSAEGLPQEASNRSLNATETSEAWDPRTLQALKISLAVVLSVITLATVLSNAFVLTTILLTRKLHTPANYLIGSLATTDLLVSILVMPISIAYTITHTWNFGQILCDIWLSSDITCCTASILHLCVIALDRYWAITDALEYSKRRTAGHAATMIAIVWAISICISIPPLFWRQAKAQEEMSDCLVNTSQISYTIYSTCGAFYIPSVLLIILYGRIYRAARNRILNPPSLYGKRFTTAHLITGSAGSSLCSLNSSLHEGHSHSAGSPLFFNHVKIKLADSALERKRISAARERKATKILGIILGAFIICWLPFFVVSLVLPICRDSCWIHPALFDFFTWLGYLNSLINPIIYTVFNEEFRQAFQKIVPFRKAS

[7] = target: T5, 5-hydroxytryptamine receptor 1F (Homo sapiens) (UniProt P30939); assay: Inhibition of [3H]-5-HT binding to human cloned 5-hydroxytryptamine 1F receptor stably expressed in CHO cells at 1 uM; format: cell-based
T5 sequence (whole entry): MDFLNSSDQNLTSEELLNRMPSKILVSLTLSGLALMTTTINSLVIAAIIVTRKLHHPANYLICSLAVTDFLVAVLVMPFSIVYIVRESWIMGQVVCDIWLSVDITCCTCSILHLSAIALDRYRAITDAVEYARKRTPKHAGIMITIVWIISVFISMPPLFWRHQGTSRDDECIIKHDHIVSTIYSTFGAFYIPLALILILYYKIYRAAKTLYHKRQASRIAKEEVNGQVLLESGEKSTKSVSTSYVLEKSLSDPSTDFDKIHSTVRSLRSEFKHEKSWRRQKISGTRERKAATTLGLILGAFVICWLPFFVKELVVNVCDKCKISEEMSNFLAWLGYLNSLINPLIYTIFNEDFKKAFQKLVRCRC

[8] = target: T6, 5-hydroxytryptamine receptor 2C (Homo sapiens) (UniProt P28335); assay: Inhibition of [3H]5-HT binding to human cloned 5-hydroxytryptamine 2C receptor stably expressed in CHO cells at 1 uM; format: cell-based
T6 sequence (whole entry): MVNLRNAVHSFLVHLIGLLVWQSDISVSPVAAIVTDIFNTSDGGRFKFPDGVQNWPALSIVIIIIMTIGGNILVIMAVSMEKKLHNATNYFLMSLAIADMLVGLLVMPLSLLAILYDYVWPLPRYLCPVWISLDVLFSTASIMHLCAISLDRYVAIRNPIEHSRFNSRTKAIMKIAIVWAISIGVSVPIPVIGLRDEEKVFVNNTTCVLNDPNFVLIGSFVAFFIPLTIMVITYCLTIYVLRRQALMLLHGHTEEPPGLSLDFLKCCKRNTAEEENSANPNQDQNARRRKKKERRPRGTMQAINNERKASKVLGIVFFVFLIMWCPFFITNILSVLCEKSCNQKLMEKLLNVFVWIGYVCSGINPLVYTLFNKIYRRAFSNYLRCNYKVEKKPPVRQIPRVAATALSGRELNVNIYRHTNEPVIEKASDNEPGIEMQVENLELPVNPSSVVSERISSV

D(2) dopamine receptor [9] = target: T7, D(2) dopamine receptor (Homo sapiens, UniProt P14416); assay: Binding affinity against human cloned Dopamine receptor D2 stably expressed in CHO-K1 cells using [3H]spiperone; format: cell-based
T7 sequence (P14416 whole entry): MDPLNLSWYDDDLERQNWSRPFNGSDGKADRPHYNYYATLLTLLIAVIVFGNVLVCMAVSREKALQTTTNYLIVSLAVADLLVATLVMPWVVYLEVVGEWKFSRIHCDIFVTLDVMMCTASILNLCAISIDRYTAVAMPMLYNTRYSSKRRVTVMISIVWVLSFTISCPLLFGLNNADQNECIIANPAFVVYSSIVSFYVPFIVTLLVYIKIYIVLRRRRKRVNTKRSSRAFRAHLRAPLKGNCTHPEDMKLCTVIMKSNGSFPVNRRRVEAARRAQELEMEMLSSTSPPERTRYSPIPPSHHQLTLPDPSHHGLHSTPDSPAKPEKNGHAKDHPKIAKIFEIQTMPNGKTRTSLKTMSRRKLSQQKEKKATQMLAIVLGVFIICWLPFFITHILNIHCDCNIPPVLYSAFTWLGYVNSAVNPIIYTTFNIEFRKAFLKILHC

[10] = target: T8, 5-hydroxytryptamine receptor 1A (Homo sapiens, UniProt P08908); assay: Binding affinity against human cloned 5-hydroxytryptamine 1A receptor stably expressed in CHO cells using DPAT
T8 sequence (P08908 whole entry): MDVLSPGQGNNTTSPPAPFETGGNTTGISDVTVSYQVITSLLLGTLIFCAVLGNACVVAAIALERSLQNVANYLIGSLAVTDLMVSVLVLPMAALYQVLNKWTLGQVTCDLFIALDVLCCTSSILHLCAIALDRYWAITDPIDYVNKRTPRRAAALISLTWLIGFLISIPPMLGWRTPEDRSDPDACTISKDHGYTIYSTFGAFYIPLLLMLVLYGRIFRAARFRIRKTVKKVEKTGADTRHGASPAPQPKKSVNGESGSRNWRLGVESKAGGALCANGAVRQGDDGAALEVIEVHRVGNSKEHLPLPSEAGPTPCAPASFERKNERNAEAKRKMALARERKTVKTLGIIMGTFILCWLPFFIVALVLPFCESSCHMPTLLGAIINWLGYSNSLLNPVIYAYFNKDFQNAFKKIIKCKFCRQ

[11] = target: T4, 5-hydroxytryptamine receptor 2A; assay: Binding affinity against human cloned 5-hydroxytryptamine 2A receptor stably expressed in CHO cells using [125I]DOI; format: cell-based
[12] = target: T9, 5-hydroxytryptamine receptor 2C (Homo sapiens, UniProt P28335); assay: Binding affinity against human cloned 5-hydroxytryptamine 2C receptor stably expressed in CHO cells using [3H]-5-HT; format: cell-based
T9 sequence (P28335 whole entry): T6 sequence (whole entry)

[13] = target: T1, 5-hydroxytryptamine receptor 6; assay: Inhibition of [3H]LSD binding to cloned human 5-hydroxytryptamine 6 receptor expressed in HeLa cells at 1 uM; format: cell-based
[14] = target: 5-hydroxytryptamine receptor 7 (Homo sapiens, UniProt P34969); assay: Binding affinity against human cloned 5-hydroxytryptamine 7 receptor stably expressed in CHO cells using [3H]LSD; format: cell-based
Sequence of 5-hydroxytryptamine receptor 7 (P34969 whole entry): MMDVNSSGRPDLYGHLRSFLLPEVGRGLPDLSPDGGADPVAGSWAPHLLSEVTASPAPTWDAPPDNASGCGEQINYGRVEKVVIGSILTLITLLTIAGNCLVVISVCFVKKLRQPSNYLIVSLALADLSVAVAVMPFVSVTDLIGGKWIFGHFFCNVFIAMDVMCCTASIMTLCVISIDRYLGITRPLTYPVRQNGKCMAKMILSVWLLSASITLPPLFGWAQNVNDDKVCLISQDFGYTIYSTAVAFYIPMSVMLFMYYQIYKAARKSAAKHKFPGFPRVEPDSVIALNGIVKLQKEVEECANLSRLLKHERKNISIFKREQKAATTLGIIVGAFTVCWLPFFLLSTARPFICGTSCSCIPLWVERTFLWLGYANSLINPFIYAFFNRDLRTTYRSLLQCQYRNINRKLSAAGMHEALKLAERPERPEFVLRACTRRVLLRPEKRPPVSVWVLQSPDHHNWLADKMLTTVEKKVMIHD

D(2) dopamine receptor [15] = target: T7, D(2) dopamine receptor; assay: Inhibition of [3H]spiperone binding to human cloned Dopamine receptor D2 stably expressed in CHO-K1 cells at 1 uM; format: cell-based
D(3) dopamine receptor [16] = target: T2, D(3) dopamine receptor; assay: Inhibition of [3H]spiperone binding to human cloned Dopamine receptor D3 stably expressed in CHO-K1 cells at 1 uM; format: cell-based
[17] = target: T10, D(4) dopamine receptor (Homo sapiens) (UniProt P21917); assay: Inhibition of [3H]spiperone binding to human cloned Dopamine receptor D4 stably expressed in CHO-K1 cells at 1 uM; format: cell-based
T10 sequence (whole entry): T3 sequence (P21917 whole entry)

T1 sequence (P50406 whole entry): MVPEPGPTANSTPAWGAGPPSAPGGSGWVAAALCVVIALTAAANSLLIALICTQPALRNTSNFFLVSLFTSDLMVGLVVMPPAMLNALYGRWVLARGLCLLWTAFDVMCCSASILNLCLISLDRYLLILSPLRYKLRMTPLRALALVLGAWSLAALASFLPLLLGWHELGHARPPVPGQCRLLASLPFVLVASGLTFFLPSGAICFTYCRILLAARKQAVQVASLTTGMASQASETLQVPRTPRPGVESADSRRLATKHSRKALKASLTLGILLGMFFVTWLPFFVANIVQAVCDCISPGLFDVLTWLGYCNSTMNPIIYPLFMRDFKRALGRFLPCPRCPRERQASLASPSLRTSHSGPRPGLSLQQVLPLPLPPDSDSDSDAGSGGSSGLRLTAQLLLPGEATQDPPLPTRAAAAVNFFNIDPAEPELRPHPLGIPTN

SMILES	Ki [1]	IC50 [2]	also measured
O=S(=O)(c1ccccc1)n1cc(C2=CCN(Cc3ccccc3)CC2)c2ccccc21	246 nM	–	–
CN1CC=C(c2cn(S(=O)(=O)c3ccc(F)cc3)c3ccccc23)CC1	5 nM	42.7 nM	–
O=S(=O)(c1ccccc1F)n1cc(C2=CCNCC2)c2ccccc21	1 nM	2.7 nM	Ki (D(3) dopamine receptor [3]): 741 nM; Ki (D(4) dopamine receptor): > 5000 nM; inhibition [4]: 50%; inhibition [5]: 11%; inhibition [6]: 9%; inhibition [7]: 53%; inhibition [8]: 57%; Ki (D(2) dopamine receptor [9]): > 2000 nM; Ki [10]: 875 nM
Nc1ccc(S(=O)(=O)n2cc(C3=CCNCC3)c3cc(OCc4ccccc4)ccc32)cc1	50 nM	–	–
CC(C)(C)OC(=O)N1CC=C(c2cn(S(=O)(=O)c3ccccc3)c3ccccc23)CC1	54 nM	–	–
O=S(=O)(c1ccccc1Cl)n1cc(C2=CCNCC2)c2ccccc21	0.4 nM	8.8 nM	Ki (D(3) dopamine receptor [3]): 627 nM; Ki (D(4) dopamine receptor): > 5000 nM; inhibition [5]: 12%; inhibition [6]: 6%; inhibition [7]: 2%; Ki [11]: 599 nM; Ki [12]: 383 nM; Ki (D(2) dopamine receptor [9]): > 2000 nM; Ki [10]: > 2000 nM
Nc1ccc(S(=O)(=O)n2cc(C3=CCNCC3)c3cc(Br)ccc32)cc1	7 nM	33.7 nM	–
Nc1ccc(S(=O)(=O)n2cc(C3=CCNCC3)c3ccc([N+](=O)[O-])cc32)cc1	31 nM	–	–
O=S(=O)(c1ccc(Cl)cc1)n1cc(C2=CCNCC2)c2cc(F)ccc21	14 nM	–	–
CC(=O)N1CC=C(c2cn(S(=O)(=O)c3ccccc3)c3ccccc23)CC1	–	–	inhibition [13]: 64%
Nc1ccc(S(=O)(=O)n2cc(C3=CCNCC3)c3cc([N+](=O)[O-])ccc32)cc1	29 nM	–	–
CN1CC=C(c2cn(S(=O)(=O)c3ccccc3F)c3ccccc23)CC1	10 nM	3.9 nM	–
O=S(=O)(c1ccc2ccccc2c1)n1cc(C2=CCNCC2)c2ccccc21	27 nM	–	–
O=S(=O)(c1ccc(F)cc1)n1cc(C2=CCNCC2)c2cc(F)ccc21	3 nM	31 nM	–
CCCCS(=O)(=O)n1cc(C2=CCNCC2)c2ccccc21	77 nM	–	–
Nc1ccc(S(=O)(=O)n2cc(C3=CCNCC3)c3cc4c(cc32)OCO4)cc1	1 nM	1.7 nM	–
O=S(=O)(c1ccccc1)n1cc(C2=CCNCC2)c2ccccc21	2 nM	43 nM	–
Nc1ccc(S(=O)(=O)n2cc(C3=CCNCC3)c3ccccc32)cc1	2 nM	0.8 nM	Ki [14]: 1550 nM; inhibition [5]: 33%; Ki [10]: 1670 nM
Nc1ccc(S(=O)(=O)n2cc(C3=CCNCC3)c3cc(F)ccc32)cc1	1 nM	9.7 nM	–

SMILES	Ki [1]	IC50 [2]	also measured
O=S(=O)(c1ccccc1)n1cc(C2CCNCC2)c2ccccc21	12 nM	19.5 nM	–
CN1CC=C(c2cn(S(=O)(=O)c3ccccc3Cl)c3ccccc23)CC1	10 nM	0.7 nM	–
O=S(=O)(c1ccccc1)n1cc(C2CCNCC2)c2cc(F)ccc21	20 nM	–	–
Nc1ccc(S(=O)(=O)n2cc(C3=CCNCC3)c3ccc(Cl)cc32)cc1	3 nM	11.2 nM	–
CN1CC=C(c2c[nH]c3ccccc23)CC1	98 nM	–	–
O=S(=O)(c1ccccc1)n1cc(C2=CCNCC2)c2cc(F)ccc21	2.4 nM	–	–
CN1CC=C(c2cn(C(=O)Nc3ccccc3)c3ccccc23)CC1	118 nM	–	–
O=S(=O)(c1cccc2ccccc12)n1cc(C2=CCNCC2)c2cc(F)ccc21	4 nM	9 nM	–
Nc1ccc(S(=O)(=O)n2cc(C3CCNCC3)c3cc(F)ccc32)cc1	2 nM	1.3 nM	–
Nc1ccc(S(=O)(=O)n2cc(C3CCNCC3)c3ccc(Cl)cc32)cc1	3 nM	8.5 nM	Ki [14]: > 2000 nM; inhibition [4]: 65%; inhibition [5]: 30%; inhibition [6]: 10%; inhibition [7]: 16%; inhibition [8]: 15%; inhibition (D(2) dopamine receptor [15]): 10%; inhibition (D(3) dopamine receptor [16]): 7%; inhibition [17]: 7%; Ki [10]: 115 nM
CN1CC=C(c2cn(C(=O)c3ccccc3)c3ccccc23)CC1	99 nM	–	–
O=S(=O)(c1ccc(C(F)(F)F)cc1)n1cc(C2=CCNCC2)c2ccccc21	20 nM	–	–
CN1CC=C(c2cn(S(=O)(=O)c3ccccc3)c3ccccc23)CC1	2 nM	13.8 nM	–
CN1CC=C(c2cn(S(=O)(=O)c3cccc(Cl)c3)c3ccccc23)CC1	1 nM	9.4 nM	–
O=S(=O)(c1ccc(Cl)s1)n1cc(C2=CCNCC2)c2ccccc21	3 nM	14.1 nM	–
COc1ccc2c(c1)c(C1=CCNCC1)cn2S(=O)(=O)c1ccc2ccccc2c1	19 nM	4.1 nM	–
COc1ccc(S(=O)(=O)n2cc(C3=CCNCC3)c3ccccc32)cc1	18 nM	–	–
O=S(=O)(c1nccc2sncc12)n1cc(C2=CCNCC2)c2ccccc21	5 nM	169 nM	–
COc1ccc2c(c1)c(C1=CCNCC1)cn2S(=O)(=O)c1ccc(N)cc1	3 nM	0.4 nM	Ki [14]: > 5000 nM; inhibition [5]: 27%; inhibition [6]: 32%; Ki [10]: 97 nM
